Laboratory results from patent US20110105436A1, “HETEROARYL COMPOUNDS, COMPOSITIONS, AND METHODS OF USE IN CANCER TREATMENT” (AUCKLAND UNISERVICES LIMITED, priority 2008, published 2011).

Columns and labels:
Assay type in all cases: cell-based
[1] = test system: LC3; assay: LC3 processing by Western blot and immunostaining; conditions: for toxicity, vacuole formation and LC3-lipidated form (autophagy) of analogs: 1.25 μM, 20 hours, FIG. 5A-B; for effect of inhibitor on vacuole formation and LC3-II induced by STF-62247: co-treatment with 1.25 μM STF-62247, 20 hrs, VHL-deficient RCC cells
Procedure: (§1) Western blot analysis. After treatments, cells were lysed in urea buffer (9M urea, 75 mM Tris (pH 7.5), 150 mM b-mercaptoethanol), placed on ice for 10 minutes and sonicated briefly (15 seconds). Extracts were centrifugated at 8,000×g for 10 minutes to eliminate insoluble material. Lysates were quantitated using Bio-Rad protein Assay (Bio-Rad Laboratories) and 20-30 μg of proteins were separated on a 7.5% or 15% bis-acrylamide gels and then transferred onto PVDF membranes. Proteins were visualized using HIF-2α (Novus Biological), HIF-1α, pVHL and BiP (BD Biosciences), LC3 (MBL), Atg5, or α-tubulin antibodies.
Immunofluorescence staining. Cells were seeded on glass coverslips and at subconfluence, STF-62247 was added at 1.25 μM for RCC4 and 3.75 μM for SN12C. After 20 hours, cells were fixed in 3.7% formaldehyde for 10 min at room temperature and washed in PBS. Then cells were permeabilized in 0.2% Triton X-100 for 5 min at room temperature and washed in PBS. The coverslips were incubated with primary antibody LC3 diluted 1:500 in PBS containing 0.2% BSA for 1 hour at room temperature. Cells were washed three times in PBS-BSA and the bound primary antibody was detected using a fluorescein-conjugated secondary antibody (ALEXA) diluted 1:500 in PBS-BSA and incubated for 1 hour. Coverslips were washed and mounted in mounting medium from Vector Laboratories according to the manufacturer's instructions. Cells were examined with a confocal microscope
A. Phase contrast pictures of VHL-deficient RCC4 and SN12C-VHL shRNA cells and VHL-positive cells RCC4 and SN12C after 20 hrs of 1.25 μM STF-62247. B. Immunostaining for LC3 following STF-62247 treatment at 1.25 μM for 20 hrs with or without 2 mM of 3-MA in RCC4 with and without VHL cells. After treatment, cells were fixed, permeabilized and processed for the detection of punctuate staining by indirect immunofluorescence. C. Autophagic vacuoles stained with monodansylcadaverine (MDC). After STF-62247 treatment in the same conditions, MDC was added for the last 10 minutes. Cells were fixed, washed with PBS and observed directly under microscope. D. Western blot for LC3 in RCC4, RCC4/VHL, SN12C, and SN12C-VHL shRNA cells after STF-62247 treatment with or without 3-MA. Nutrient starvation (EBSS) is used as positive control. E. Western blot for LC3 in RCC4 and RCC4/VHL with different concentrations of STF-62247. Tubulin was used as loading control. F. Cell viability assay in VHL-deficient RCC4 and wild-type VHL cells treated with 1 mM of 3-MA, 1.25 μM of STF-62247 alone or in combination for 24 hrs. Viability is measured by trypan blue exclusion assay and is represented by the average of three different experiments in duplicate as the percent of treated on untreated cells. The error bars are represented as SEM.
(§2) A. VHL-deficient RCC4 and wild-type VHL were incubated in presence of 10 μM LY294002, or 1 μg/mlBrefeldin A with 1.25 μM of STF-62247 for 20 hrs and the presence of vacuoles was examined under light microscopy. B,C. LC3 processing was evaluated by Western blot after the treatment with Brefeldin A or LY294002 in presence or absence of STF-62247 as described above. Tubulin was used as loading control. D. Cells were treated with 1.25 μM of STF-62247 with or without 2 mM of 3-MA, 1 μg/ml of Brefeldin A for 20 hrs. For the last 15 min, acidic components were stained with 1 μg/ml of acridine orange and visualized under fluorescence microscope. […] F. Quantification of the FACS analysis. The data are calculated as the average of three different experiments as relative units of treated over untreated cells. The error bars are represented as the standard error of the mean (SEM).
B,C. LC3 processing was evaluated by Western blot after the treatment with U0126 or tunicamycin in presence or absence of STF-62247 as described above. Tubulin was used as loading control.

[2] = test system: RCC4, RCC4/VHL, SN12C and SN12C-VHL shRNA cells; assay: Acidic vesicle organelles with acridine orange (FACS); conditions: for acridine orange staining / amount of AVOs: 1.25 μM, VHL-deficient versus wild-type VHL cells; for effect of inhibitor on autolysosomal acidification induced by STF-62247: 2 mM 3-MA or 1 μg/ml Brefeldin A with 1.25 μM STF-62247, 20 hrs
Procedure: Quantification of Acidic Vesicle Organelles with Acridine Orange. In acridine orange-stained cells, the cytoplasm and nucleus are bright green and dim red, whereas acidic compartments are bright red. The intensity of the red fluorescence is proportional to the degree of acidity. Following 20 hours of treatment with STF-62247 or analogs, cells were stained with 1 μg/ml of acridine orange for 15 min. Cells were trypsinized and then analyzed by flow cytometry using FACScan cytometer and CellQuest software.
as §2
(§3) A. RCC4 and RCC4/VHL were treated with 1.25 μM of each 19 analogs for 20 hours and the presence of vacuoles was examined under light microscopy. B. Western blot for LC3 after treatment with each compound. Tubulin was used as loading control. Ratio is the relative from the IC50 in RCC4/VHL cells/IC50 in RCC4 cells. C. Acidic vesicle organelles (AVO) measured by FACS analysis in cells treated with 1.25 μM of STF-62247 or with compounds 21, 15, 25, 47, and 53 and stained with acridine orange.

[3] = test system: RCC4/VHL cells; assay: XTT assay, RCC4/VHL versus RCC4 cells (selectivity ratio); conditions: for Ratio: Table 1, selectivity ratio, IC50 in RCC4/VHL cells/IC50 in RCC4 cells
Procedure: (§4) Cell Viability and XTT assays. For cell viability, 100,000 cells were plated in a 12-well plate. The following day, 1.25 μM STF-62247 was added in the presence or absence of 1 mM 3-MA for 24 hours at 37° C. Cells were trypsinized and counted by trypan blue exclusion. For XTT assays, 5000 RCC4 with and without VHL cells or 2,500 SN12C with and without VHL shRNA cells were plated in 96-well plates. The following day, vehicle (DMSO), STF-62247 or each of 19 analogs were added to media by serial dilution. Four days later, the media was aspirated and XTT solution containing 0.3 mg/ml of XTT (Sigma Chemical Co) in Phenol Red-free media, 20% FCS and 2.65 mg/ml N-methyl dibenzopyrazine methyl sulfate (PMS) was added to the cells and incubated at 37° C. for 1-2 hours. Metabolism of XTT was quantified by measuring the absorbance at 450 nm on a plate reader.
as §3

[4] = test system: RCC4 cells; assay: XTT assay in VHL-deficient RCC4 cells; conditions: Homo sapiens, 96 h; Table 1; XTT assay, VHL-deficient RCC4 cells, four days
Summary of the method: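 RCC4 cells with and without VHL seeded at 5000/well, then exposed next day to serially diluted compound (DMSO vehicle) for four days. Viability read by XTT (0.3 mg/ml) with PMS, 1-2 h at 37° C, absorbance at 450 nm.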

[5] = test system: BiP (Grp78); assay: Western blot for BiP (ER stress); conditions: 2 μg/ml tunicamycin, FIG. 9C
Procedure: as §1
B,C. LC3 processing was evaluated by Western blot after the treatment with U0126 or tunicamycin in presence or absence of STF-62247 as described above. Tubulin was used as loading control. D. FACS analysis to measure the acidic vesicle organelles after staining with acridine orange in SN12C and SN12C-VHL shRNA following treatment with STF-62247 for 24 hours. E. AVO quantification from the FACS analysis in A. F. Autophagic vacuoles stained with MDC. After STF-62247 treatment with or without 3-MA, NH4Cl, MDC was added the last 10 minutes. Then, cells were fixed, washed with PBS and observed directly under microscope.

[6] = test system: VHL-deficient RCC4 and wild-type VHL cells; assay: Cell viability by trypan blue exclusion; conditions: 1 mM 3-MA, 1.25 μM STF-62247, 24 hours, FIG. 2F
Procedure: as §4
A. Phase contrast pictures of VHL-deficient RCC4 and SN12C-VHL shRNA cells and VHL-positive cells RCC4 and SN12C after 20 hrs of 1.25 μM STF-62247. B. Immunostaining for LC3 following STF-62247 treatment at 1.25 μM for 20 hrs with or without 2 mM of 3-MA in RCC4 with and without VHL cells. […] Viability is measured by trypan blue exclusion assay and is represented by the average of three different experiments in duplicate as the percent of treated on untreated cells. […]

## Cc1ccc(Nc2nc(-c3ccncc3)cs2)cc1 [Compound 21, N-(4-Methylphenyl)-4-(4-pyridinyl)-1,3-thiazol-2-amine]
[1]
  toxicity, vacuole formation and LC3-lipidated form (autophagy) of analogs: induced significant vacuole formation and the LC3-lipidated form
[2]
  acridine orange staining / amount of AVOs: consistertly higher in VHL-deficient cells
[3]
  Ratio: 20
[3]; structure-activity text on Tables 1 and 2
  IC50 ratio (wild-type VHL/VHL-deficient cells): high ratio
[4]
  IC50: 2.5 µM

## COc1cccc(Nc2nc(-c3ccncc3)cs2)c1 [Compound 15, N-(3-Methoxyphenyl)-4-(4-pyridinyl)-1,3-thiazol-2-amine]
[1]
  toxicity, vacuole formation and LC3-lipidated form (autophagy) of analogs: induced significant vacuole formation and the LC3-lipidated form
[2]
  acridine orange staining / amount of AVOs: consistertly higher in VHL-deficient cells
[3]
  Ratio: 17
[4]
  IC50: 3 µM

## tunicamycin [reference compound]
[1]
  effect of inhibitor on vacuole formation and LC3-II induced by STF-62247: no vacuole or LC3 processing was observed
[5]
  BiP (Grp78), marker of ER stress: induced BiP (Grp78)

## Cn1cnc(N)c2ncnc1-2 [Compound 3-MA, 3-methyladenine, reference compound]
[1]
  effect of inhibitor on vacuole formation and LC3-II induced by STF-62247: abrogated
[6]
  viability of VHL-deficient cells treated with STF-62247 in presence of inhibitor: partially restored
[2]
  effect of inhibitor on autolysosomal acidification induced by STF-62247: resulted in a decrease in autolysosomal acidification

## C[C@H]1CCC/C=C/[C@@H]2C[C@H](O)C[C@H]2[C@H](O)/C=C/C(=O)O1 [Brefeldin A, reference compound]
[1]
  effect of inhibitor on vacuole formation and LC3-II induced by STF-62247: abolished the formation of autophagic vacuoles and LC3-II
[2]
  effect of inhibitor on autolysosomal acidification induced by STF-62247: resulted in a decrease in autolysosomal acidification

## Oc1cccc(Nc2nc(-c3ccncc3)cs2)c1 [Compound 13, 3-{[4-(4-Pyridinyl)-1,3-thiazol-2-yl]amino}phenol]
[1]
  toxicity, vacuole formation and LC3-lipidated form (autophagy) of analogs: no toxicity or autophagy were observed
[2]
  acridine orange staining / amount of AVOs: not influenced
[3]
  Ratio: >3
[4]
  IC50: 28.5 µM

## Cc1cc(Nc2nc(-c3ccncc3)cs2)ccc1O [Compound 53, 2-Methyl-4-{[4-(4-pyridinyl)-1,3-thiazol-2-yl]amino}phenol]
[1]
  toxicity, vacuole formation and LC3-lipidated form (autophagy) of analogs: no toxicity or autophagy were observed
[2]
  acridine orange staining / amount of AVOs: not influenced
[3]
  Ratio: 2.3
[4]
  IC50: 70 µM

## Oc1ccc(Nc2nc(-c3ccncc3)cs2)cc1 [Compound 25, 4-{[4-(4-Pyridinyl)-1,3-thiazol-2-yl]amino}phenol]
[1]
  toxicity, vacuole formation and LC3-lipidated form (autophagy) of analogs: induced significant vacuole formation and the LC3-lipidated form
[2]
  acridine orange staining / amount of AVOs: consistertly higher in VHL-deficient cells
[3]
  Ratio: 8
[4]
  IC50: 5.3 µM
